The source of these data is BindingDB's records for patent US11760761 (Aligos Therapeutics, 2023).

This assay addresses Programmed cell death 1 ligand/protein 1 (Homo sapiens, UniProt Q9NZQ7). Put plainly: PDL1/PD1 Binding Assay. As for the experimental part: Compounds to be tested were serially diluted in DMSO, and further diluted in assay buffer (25 mM Hepes pH 7.4, 150 mM NaCl, 0.005% Tween 20, BSA 0.01%). Diluted compounds were added to the wells with final concentration of DMSO at 1%. PDL1-6×His protein was added to the wells, mixed well with compound. The plates were incubated for 30 min at room temperature. PD1-Fc-Avi-Biotin protein was added to the wells. Final concentration of PDL1 and PD1 protein is 0.3 nM and 2.5 nM, respectively. After a binding time of 30 min at room temperature, Anti-6×His Acceptor beads (final concentration 20 ug/ml) were added to the wells, and the incubation continued for 1 h. Streptavidin Donor beads (final concentration 20 ug/mL) were added at reduced light. The plates were sealed with foil and incubated in the dark for additional 1 h or overnight before reading on an Envision reader.

A value given as a limit tells only on which side of the number the result lay.

Programmed cell death 1 ligand/protein 1, sequence (Q9NZQ7 whole entry): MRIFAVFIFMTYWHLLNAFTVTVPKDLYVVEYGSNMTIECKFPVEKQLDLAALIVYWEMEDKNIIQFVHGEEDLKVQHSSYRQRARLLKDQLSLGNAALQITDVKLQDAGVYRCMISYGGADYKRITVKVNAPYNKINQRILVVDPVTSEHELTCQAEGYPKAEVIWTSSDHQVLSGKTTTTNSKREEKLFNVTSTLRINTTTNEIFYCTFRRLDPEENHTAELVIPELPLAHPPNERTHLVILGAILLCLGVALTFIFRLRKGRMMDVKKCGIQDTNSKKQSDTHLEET
Programmed cell death 1 ligand/protein 1, sequence (Q15116 whole entry, further chain): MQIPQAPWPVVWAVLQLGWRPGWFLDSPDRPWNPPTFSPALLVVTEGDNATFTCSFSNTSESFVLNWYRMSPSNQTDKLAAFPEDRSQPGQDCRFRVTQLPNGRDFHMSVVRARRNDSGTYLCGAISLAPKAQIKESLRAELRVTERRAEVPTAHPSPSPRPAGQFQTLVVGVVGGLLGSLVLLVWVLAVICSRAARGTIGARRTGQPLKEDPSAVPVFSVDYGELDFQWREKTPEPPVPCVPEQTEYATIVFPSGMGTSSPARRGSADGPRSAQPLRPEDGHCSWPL

Consider `COc1nc(-c2cccc(-c3cccc(-c4cc5c(c(OC)n4)[C@@H](NC[C@@H]4CCC(=O)N4)CC5)c3Cl)c2Cl)cc(C)c1CN1CC2(C1)CN(C(C)=O)C2` [US11760761, Compound E-2], for which the IC50 (as a rule, the concentration that inhibits the measured activity by half) is below 10 nM.
Take `COc1nc(-c2cccc(-c3cccc(-c4cc5c(c(OC)n4)[C@H](NC[C@@H]4CCC(=O)N4)CO5)c3Cl)c2Cl)ccc1CN1CC(OC)C1` [US11760761, Compound E-7]: the IC50 is below 10 nM.
The same measure for `COc1nc(-c2cccc(-c3cccc(-c4cc5c(c(OC)n4)[C@@H](NC[C@@H]4CCC(=O)N4)CC5)c3Cl)c2Cl)cnc1CN1CC2(C1)CN(C(C)=O)C2` [US11760761, Compound D-1]: below 10 nM.
The same measure for `COc1cc(-c2cccc(-c3cccc(-c4cnc(CN5CC6(CCC(=O)N6)C5)c(OC)n4)c3Cl)c2Cl)cc2c1[C@@H](NCC(=O)O)CC2` [US11760761, Compound B-1]: below 10 nM.
The same measure for `COc1nc(-c2cccc(-c3cccc(-c4cc5c(c(OC)n4)CCN(C[C@@H]4CCC(=O)N4)C5)c3Cl)c2Cl)cnc1CN1CC2(CCC(=O)N2)C1` [US11760761, Compound K-1]: below 10 nM; for `COCCN1CCc2c(cc(-c3cccc(-c4cccc(-c5cnc(CN6CC7(CCC(=O)N7)C6)c(OC)n5)c4Cl)c3Cl)nc2OC)C1` [US11760761, Compound K-2]: below 10 nM.
In the case of `CCOC(=O)C1CN([C@H]2CCc3cc(-c4cccc(-c5cccc(-c6cnc(CN7CC(O)C7)c(OC)n6)c5Cl)c4Cl)nc(OC)c32)C1` [US11760761, Compound G-1], the IC50 is below 10 nM.
The result for `CCOC(=O)CN1CCc2c(cc(-c3cccc(-c4cccc(-c5cnc(CN6CC(O)C6)c(OC)n5)c4Cl)c3Cl)nc2OC)C1` [US11760761, Compound I-1] reads below 10 nM.
In the case of `COc1nc(-c2cccc(-c3cccc(-c4cc5c(c(OC)n4)[C@H](NC[C@@H]4CCC(=O)N4)CO5)c3Cl)c2Cl)ccc1CNC[C@@H]1CCC(=O)N1` [US11760761, Compound E-6], the IC50 was below 10 nM.
The result for `COc1nc(-c2cccc(-c3cccc(-c4cc5c(c(OC)n4)CCN(CC(=O)O)C5)c3Cl)c2Cl)cnc1CN1CC(O)C1` [US11760761, Compound J-1] reads below 10 nM; that for `COc1nc(-c2cccc(-c3cccc(-c4cc5c(c(OC)n4)[C@@H](N4CC(C(=O)O)C4)CC5)c3Cl)c2Cl)cnc1CN1CC(O)C1` [US11760761, Compound H-1], below 10 nM.
The result for `COc1cc(-c2cccc(-c3cccc(-c4cnc(CN5CC6(CCC(=O)N6)C5)c(OC)n4)c3Cl)c2Cl)cc2c1[C@H](NCC(=O)O)CC2` (single isomer, unassigned) [US11760761, Compound B-2] reads below 10 nM.
As to `COc1nc(-c2cccc(-c3cccc(-c4cc5c(c(OC)n4)[C@@H](NC[C@@H]4CCC(=O)N4)CC5)c3Cl)c2Cl)ccc1CNC[C@@H]1CCC(=O)N1` [US11760761, Compound E-1], the IC50 was below 10 nM.
Molecule `COc1nc(-c2cccc(-c3cccc(-c4cc5c(c(OC)n4)[C@@H](NC[C@@H]4CCC(=O)N4)CC5)c3Cl)c2Cl)cnc1CN1CC2(CCC(=O)N2)C1` [US11760761, Compound C-1] gave a 50% inhibitory concentration (IC50) below 10 nM.
Regarding `COc1nc(-c2cccc(-c3cccc(-c4cc5c(c(OC)n4)C(N4CCC[C@@H](C(=O)O)C4)CC5)c3Cl)c2Cl)cnc1CN1CC(O)C1` (stereo not given in full) [US11760761, Compound F-1], the IC50 was below 10 nM.
